Experiments:
BAF/Tel-TRKB-Q2/sACP = biological target: T1, BAF/Tel-TRKB-Q2/sACP (Homo sapiens, UniProt Q16620); test: BaF3 proliferation assay; type: cell-based, murine
T1 construct: fused on or other part: P41212 (Transcription factor ETV6)

CD163 = CD163 expression in M2c macrophages; type: cell-based, human
Description: Freshly isolated human PBMCs were used to purify human monocytes by negative selection using an indirect magnetic labeling system. […] Soluble factors such as cytokines (VEGFa, IL-6 etc.) and chemokines (IL-8, MCP-1, MMP9 etc.) in the culture supernatant were measured using commercial ELISA kits. The in vitro survival of human macrophages was measured using a commercially available CellTiter-Glo® system. Most observed results were repeated in multiple donors (n>5).

JNK2alpha2 = JNK2alpha2 (Homo sapiens, UniProt P45984); test: In vitro kinase assay (Table 1); type: biochemical
Sequence of JNK2alpha2 (P45984 whole entry): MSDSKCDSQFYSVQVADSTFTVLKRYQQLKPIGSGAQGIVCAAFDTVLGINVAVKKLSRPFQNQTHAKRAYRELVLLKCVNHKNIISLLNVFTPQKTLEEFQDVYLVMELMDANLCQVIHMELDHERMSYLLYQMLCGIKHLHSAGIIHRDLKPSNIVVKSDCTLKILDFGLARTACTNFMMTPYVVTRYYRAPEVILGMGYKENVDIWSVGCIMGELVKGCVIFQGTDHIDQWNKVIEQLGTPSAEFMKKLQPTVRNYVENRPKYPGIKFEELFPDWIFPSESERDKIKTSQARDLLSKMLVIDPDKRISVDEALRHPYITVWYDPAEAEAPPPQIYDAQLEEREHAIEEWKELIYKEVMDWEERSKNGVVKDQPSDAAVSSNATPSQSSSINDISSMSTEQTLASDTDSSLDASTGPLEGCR

PDGFRKalpha (h) = biological target: T2, PDGFRKalpha (h) (Homo sapiens, UniProt P16234); test: Kinase profiling at Invitrogen; type: biochemical
T2 construct: purchased Invitrogen
T2 sequence (P16234 24-1089): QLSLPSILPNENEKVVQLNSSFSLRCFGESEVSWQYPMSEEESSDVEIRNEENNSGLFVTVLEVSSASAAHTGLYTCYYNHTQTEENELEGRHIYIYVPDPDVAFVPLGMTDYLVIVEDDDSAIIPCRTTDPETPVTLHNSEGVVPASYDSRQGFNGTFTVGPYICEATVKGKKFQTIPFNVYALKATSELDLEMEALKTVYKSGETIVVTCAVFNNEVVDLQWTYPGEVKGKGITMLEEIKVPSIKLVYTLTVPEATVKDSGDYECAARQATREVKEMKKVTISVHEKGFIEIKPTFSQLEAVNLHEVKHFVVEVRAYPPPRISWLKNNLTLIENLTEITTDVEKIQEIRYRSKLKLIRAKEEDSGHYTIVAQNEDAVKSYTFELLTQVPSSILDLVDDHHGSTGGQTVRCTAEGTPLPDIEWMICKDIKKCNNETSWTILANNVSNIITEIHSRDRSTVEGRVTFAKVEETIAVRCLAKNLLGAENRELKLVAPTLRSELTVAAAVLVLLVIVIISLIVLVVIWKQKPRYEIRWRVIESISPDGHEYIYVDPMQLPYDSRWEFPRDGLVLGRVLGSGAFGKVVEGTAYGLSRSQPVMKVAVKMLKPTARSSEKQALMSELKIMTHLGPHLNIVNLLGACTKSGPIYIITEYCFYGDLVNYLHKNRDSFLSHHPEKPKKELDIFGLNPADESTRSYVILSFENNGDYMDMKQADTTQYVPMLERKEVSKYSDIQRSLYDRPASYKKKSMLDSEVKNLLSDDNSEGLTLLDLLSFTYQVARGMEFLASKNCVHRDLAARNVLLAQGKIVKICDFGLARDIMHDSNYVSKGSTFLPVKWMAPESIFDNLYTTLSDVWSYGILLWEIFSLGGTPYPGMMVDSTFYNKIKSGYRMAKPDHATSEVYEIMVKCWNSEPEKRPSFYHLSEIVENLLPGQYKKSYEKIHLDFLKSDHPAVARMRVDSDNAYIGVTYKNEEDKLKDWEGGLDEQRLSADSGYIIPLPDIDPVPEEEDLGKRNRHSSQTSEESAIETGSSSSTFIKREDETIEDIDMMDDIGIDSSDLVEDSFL

CDC2_cyclinB = CDC2_cyclinB (Homo sapiens, UniProt P06493); test: In vitro kinase assay (Table 1); type: biochemical
Sequence of CDC2_cyclinB (P06493 whole entry): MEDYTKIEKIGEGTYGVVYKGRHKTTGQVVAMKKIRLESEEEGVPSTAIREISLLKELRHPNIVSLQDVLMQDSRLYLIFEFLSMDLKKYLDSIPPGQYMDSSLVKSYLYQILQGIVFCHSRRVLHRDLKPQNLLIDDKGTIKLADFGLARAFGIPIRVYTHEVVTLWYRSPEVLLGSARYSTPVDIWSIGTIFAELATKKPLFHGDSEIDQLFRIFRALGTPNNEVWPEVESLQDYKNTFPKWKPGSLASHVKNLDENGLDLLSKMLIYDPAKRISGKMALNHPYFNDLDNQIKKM
Sequence of CDC2_cyclinB (P14635 whole entry partner): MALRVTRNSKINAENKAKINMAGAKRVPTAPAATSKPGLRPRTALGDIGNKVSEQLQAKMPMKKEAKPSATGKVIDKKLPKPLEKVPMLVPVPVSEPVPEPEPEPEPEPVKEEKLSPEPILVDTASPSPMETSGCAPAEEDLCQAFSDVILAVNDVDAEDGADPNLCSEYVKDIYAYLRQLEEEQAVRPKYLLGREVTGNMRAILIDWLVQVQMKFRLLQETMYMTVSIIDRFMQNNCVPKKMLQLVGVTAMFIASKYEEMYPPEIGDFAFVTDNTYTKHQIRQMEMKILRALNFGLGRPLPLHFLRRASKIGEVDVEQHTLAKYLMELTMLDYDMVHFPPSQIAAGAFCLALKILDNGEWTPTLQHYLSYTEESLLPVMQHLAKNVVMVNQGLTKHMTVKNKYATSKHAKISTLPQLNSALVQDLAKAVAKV

BaF-NPM-ALK = biological target: T3, BaF-NPM-ALK (Homo sapiens, UniProt Q9UM73); test: BaF3 proliferation assay; type: cell-based, murine
T3 construct: expressed in transfected cells; host or cells: BaF3 (murine pro-B cell line); the other entry of the earlier key: NPM1 (P06748, Nucleophosmin)
T3 sequence (Q9UM73 with tags, fused parts or gaps): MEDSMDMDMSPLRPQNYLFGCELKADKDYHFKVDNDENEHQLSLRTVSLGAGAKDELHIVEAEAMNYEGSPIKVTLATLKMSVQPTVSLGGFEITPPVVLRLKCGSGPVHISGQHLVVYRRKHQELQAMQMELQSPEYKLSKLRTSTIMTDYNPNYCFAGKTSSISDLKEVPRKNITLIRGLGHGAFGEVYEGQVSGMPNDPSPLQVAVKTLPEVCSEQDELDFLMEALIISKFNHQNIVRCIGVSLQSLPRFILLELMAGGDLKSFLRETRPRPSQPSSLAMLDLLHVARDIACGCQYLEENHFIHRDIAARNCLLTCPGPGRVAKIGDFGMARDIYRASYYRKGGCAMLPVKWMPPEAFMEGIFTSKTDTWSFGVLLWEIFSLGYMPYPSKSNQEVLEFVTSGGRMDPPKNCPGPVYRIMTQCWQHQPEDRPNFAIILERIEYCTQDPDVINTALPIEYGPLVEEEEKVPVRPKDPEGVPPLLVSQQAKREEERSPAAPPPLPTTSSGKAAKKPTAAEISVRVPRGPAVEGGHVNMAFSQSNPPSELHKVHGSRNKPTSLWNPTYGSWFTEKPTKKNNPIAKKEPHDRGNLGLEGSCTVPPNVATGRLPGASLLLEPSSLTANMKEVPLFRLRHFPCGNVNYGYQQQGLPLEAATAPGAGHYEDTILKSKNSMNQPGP

BAF/Tel-TYK2-1.3/sACP = biological target: T4, BAF/Tel-TYK2-1.3/sACP (Homo sapiens, UniProt P29597); test: BaF3 proliferation assay; type: cell-based, murine
T4 construct: fused on or other part: P41212 (Transcription factor ETV6)
T4 sequence (P29597 897-1176 limits assumed, change not shown): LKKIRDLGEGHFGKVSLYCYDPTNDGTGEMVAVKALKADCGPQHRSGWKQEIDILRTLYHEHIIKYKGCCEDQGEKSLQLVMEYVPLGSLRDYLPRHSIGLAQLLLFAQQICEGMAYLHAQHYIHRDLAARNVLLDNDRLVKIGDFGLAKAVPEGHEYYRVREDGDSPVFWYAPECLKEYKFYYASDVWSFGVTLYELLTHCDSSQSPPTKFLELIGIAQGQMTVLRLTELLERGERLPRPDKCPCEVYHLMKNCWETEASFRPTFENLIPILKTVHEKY

BAF/Tel-FGR-2.1/sACP = biological target: T5, BAF/Tel-FGR-2.1/sACP (Homo sapiens, UniProt P09769); test: BaF3 proliferation assay; type: cell-based, murine
T5 construct: fused on or other part: P41212 (Transcription factor ETV6)
T5 sequence (P09769 263-516 limits assumed, change not shown): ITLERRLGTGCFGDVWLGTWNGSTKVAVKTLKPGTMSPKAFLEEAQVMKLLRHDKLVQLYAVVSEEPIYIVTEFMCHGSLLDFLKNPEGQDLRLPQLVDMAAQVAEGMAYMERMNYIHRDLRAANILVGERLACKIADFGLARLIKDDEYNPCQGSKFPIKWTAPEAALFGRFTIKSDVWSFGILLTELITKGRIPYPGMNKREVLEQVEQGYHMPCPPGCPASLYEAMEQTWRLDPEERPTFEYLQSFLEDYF

BAF/Tel-BMX-1.2/sACP = biological target: T6, BAF/Tel-BMX-1.2/sACP (Homo sapiens, UniProt P51813); test: BaF3 proliferation assay; type: cell-based, murine
T6 construct: fused on or other part: P41212 (Transcription factor ETV6)
T6 sequence (P51813 417-675 limits assumed, change not shown): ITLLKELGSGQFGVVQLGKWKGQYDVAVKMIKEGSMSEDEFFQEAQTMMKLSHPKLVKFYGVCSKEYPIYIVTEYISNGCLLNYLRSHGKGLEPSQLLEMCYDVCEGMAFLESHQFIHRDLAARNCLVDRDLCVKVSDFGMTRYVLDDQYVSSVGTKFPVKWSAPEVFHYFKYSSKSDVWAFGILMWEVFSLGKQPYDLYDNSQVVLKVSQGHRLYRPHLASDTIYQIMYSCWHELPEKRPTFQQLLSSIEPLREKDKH

BAF/Tel-Src-3.1/sACP = biological target: T7, BAF/Tel-Src-3.1/sACP (Homo sapiens, UniProt P12931); test: BaF3 proliferation assay; type: cell-based, murine
T7 construct: fused on or other part: P41212 (Transcription factor ETV6)
T7 sequence (P12931 270-523 limits assumed, change not shown): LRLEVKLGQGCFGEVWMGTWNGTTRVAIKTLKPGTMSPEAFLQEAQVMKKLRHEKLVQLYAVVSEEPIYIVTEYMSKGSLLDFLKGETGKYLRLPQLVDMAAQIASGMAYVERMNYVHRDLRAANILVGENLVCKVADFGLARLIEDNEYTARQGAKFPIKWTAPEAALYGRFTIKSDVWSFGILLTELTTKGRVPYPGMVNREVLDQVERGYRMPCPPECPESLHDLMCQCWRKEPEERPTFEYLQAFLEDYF

BAF/Tel-FGFR4-Q4/sACP = biological target: T8, BAF/Tel-FGFR4-Q4/sACP (Homo sapiens, UniProt P22455); test: BaF3 proliferation assay; type: cell-based, murine
T8 construct: fused on or other part: P41212 (Transcription factor ETV6)

Ck2alpha1 = Ck2alpha1 (Homo sapiens, UniProt P68400); test: In vitro kinase assay (Table 1); type: biochemical
BaF3-Tel-JAK2; clone1 = biological target: T9, BaF3-Tel-JAK2; clone1 (Homo sapiens, UniProt O60674); test: BaF3 proliferation assay; type: cell-based, murine
T9 construct: fused on or other part: P41212 (Transcription factor ETV6)
T9 sequence (O60674 849-1132 limits assumed, change not shown): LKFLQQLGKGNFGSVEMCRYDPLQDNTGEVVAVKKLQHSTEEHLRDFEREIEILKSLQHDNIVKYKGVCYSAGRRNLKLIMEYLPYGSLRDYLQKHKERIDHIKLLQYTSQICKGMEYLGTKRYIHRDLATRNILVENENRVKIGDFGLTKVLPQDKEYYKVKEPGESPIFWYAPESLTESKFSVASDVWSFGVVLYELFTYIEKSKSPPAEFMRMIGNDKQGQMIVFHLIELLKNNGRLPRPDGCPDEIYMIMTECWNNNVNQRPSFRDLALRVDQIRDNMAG

BAF/Tel-Lyn-1.2/sACP = biological target: T10, BAF/Tel-Lyn-1.2/sACP (Homo sapiens, UniProt P07948); test: BaF3 proliferation assay; type: cell-based, murine
T10 construct: fused on or other part: P41212 (Transcription factor ETV6)
T10 sequence (P07948 247-501 limits assumed, change not shown): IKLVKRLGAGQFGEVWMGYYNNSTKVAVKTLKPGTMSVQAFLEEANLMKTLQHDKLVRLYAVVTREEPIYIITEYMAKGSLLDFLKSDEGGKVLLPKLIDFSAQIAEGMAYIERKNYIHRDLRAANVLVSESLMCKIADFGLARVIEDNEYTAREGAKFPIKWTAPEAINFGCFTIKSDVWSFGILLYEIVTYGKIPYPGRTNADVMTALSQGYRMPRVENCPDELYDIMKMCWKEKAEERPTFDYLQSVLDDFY

T1 sequence (Q16620 538-807 limits assumed, change not shown): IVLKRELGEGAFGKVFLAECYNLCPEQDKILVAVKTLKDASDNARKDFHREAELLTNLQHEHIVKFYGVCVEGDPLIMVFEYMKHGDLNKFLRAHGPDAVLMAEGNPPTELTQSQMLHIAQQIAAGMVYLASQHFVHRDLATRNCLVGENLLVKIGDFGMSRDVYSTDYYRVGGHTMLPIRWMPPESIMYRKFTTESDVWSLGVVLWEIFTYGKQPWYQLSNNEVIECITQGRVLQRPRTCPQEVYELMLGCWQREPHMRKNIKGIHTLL

CNC(=O)c1cc(Oc2ccc3nc(NC4CCCCC4O)sc3c2)ccn1 (stereo not shown) [Compound (I)]
EC50 (BAF/Tel-TRKB-Q2/sACP): > 10 µM
CD163 expression in M2c macrophages (CD163): no Compound (I) dose effect
IC50 (JNK2alpha2): > 10 µM
inhibition at 0.5 µM (PDGFRKalpha (h); read-out: % inhibition @ 0.5 μM, PDGFRKalpha (h)): 28%
inhibition at 5 µM (PDGFRKalpha (h); read-out: % inhibition @ 5 μM, PDGFRKalpha (h)): 41%
inhibition at 20 µM (PDGFRKalpha (h); read-out: % inhibition @ 20 μM, PDGFRKalpha (h)): 55%
IC50 (CDC2_cyclinB): > 25 µM
EC50 (BaF-NPM-ALK): > 10 µM
EC50 (BAF/Tel-TYK2-1.3/sACP): > 10 µM
EC50 (BAF/Tel-FGR-2.1/sACP): > 10 µM
EC50 (BAF/Tel-BMX-1.2/sACP): > 10 µM
EC50 (BAF/Tel-Src-3.1/sACP): > 10 µM
EC50 (BAF/Tel-FGFR4-Q4/sACP): > 10 µM
IC50 (Ck2alpha1): > 10 µM
EC50 (BaF3-Tel-JAK2; clone1): > 10 µM
EC50 (BAF/Tel-Lyn-1.2/sACP): > 10 µM

From patent US10537563B2, “Methods for treating ocular disease using inhibitors of CSF-1R” (NOVARTIS AG, priority 2016, dated 2020)
